# How the values were obtained:
# citrate whole blood = experiment: Thrombin-induced thrombus formation in a microchannel; format: cell-based; conditions: citrate whole blood reconstituted with 16.7 μM calcium chloride only
# Excerpt: The influence of clotting disorders and therapies can be assessed in a case study using elevated levels of thrombin to promote coagulation. […] It is hypothesized that elevated levels of thrombin will produce distinctive, quantifiable effects on the evolution of the blood flow and the associated formation and growth of thrombi, and these experiments will allow us to assess the ability of our model to identify those effects. Additionally, the effect of heparin, a common anticoagulant therapy, on the blood flow will be evaluated by adding heparin into the blood samples at appropriate doses.
# whole blood = conditions: sodium citrate whole blood recalcified to 100 mM CaCl2, constant inlet pressure 20 mBar, PIV
# Method: The whole blood sample for this example was drawn into a 3.2% sodium citrate containing vacutainer from a single healthy donor under an Institutional review board-approved protocol. The blood sample was stored at 4° C. upon collection and was processed within 24 h. […] Prior to the experiment, the whole blood sample was recalcified with the stock solution to obtain a final concentration of 100 mM CaCl2. […] The control experiment was performed by mixing the whole blood sample with PBS. Thereafter, the mixed blood sample was immediately injected into the microfluidic channel at a constant inlet pressure of 20 mBar by means of a Flow-EZ pressure control unit (Fluigent Inc., North Chelmsford, MA), as shown in FIG. 2. The constant supply pressure implies that the flow rate is reduced as the blood coagulates. The maximum initial shear rate was approximately 10 s^−1, and the shear rate reduced to zero as the flow slowed and eventually stopped due to microchannel blockage as coagulation occurred. The microfluidic channel was placed on an inverted microscope (Olympus IX83), and a video was recorded simultaneously under 4× magnification using a high-resolution camera (EXi Blue EXI-BLU-R-F-M-14-C) at 10 frames per second as soon as the flow was started. The field of view was centered on the microfluidic channel, and one pixel in the images corresponds to 1.58 μm. […]
smiles,measurement,setting,value
"[Ca+2].[Cl-].[Cl-] [CaCl2, calcium chloride]",blood flow in microchannel,citrate whole blood,flows uniformly
same,thrombus formation in microchannel,citrate whole blood,No thrombus formation
same,clotting time (dramatic drop in mean blood flow velocity),whole blood,~220 s
